Data from patent publication US20250347696A1, “SELF-ACTIVATING FÖRSTER RESONANCE ENERGY TRANSFER (saFRET) BIOSENSORS AND METHODS FOR MAKING AND USING THEM” (The Regents of the University of California, priority 2021, published 2025).
Changes are numbered by the printed parent chain. “Also recorded” adds a separate entry of the source. Read-outs that look alike come from different tables or passages of the source.

Legend:
[1] = tested on: phosphorylated LAT (Y191); test: pLAT (Y191) immunostaining in Jurkat T cells after anti-CD3/CD28 stimulation; format: cell-based, human; conditions: inhibitor pre-treatment 30 minutes, anti-CD3/CD28 5 minutes
Method: (§1) We tested the phosphorylation of LAT, a downstream substrate of ZAP70 kinase, and the activation of T cells with the top two identified inhibitors, staurosporine and AZD7762.
(§2) • a, Experimental scheme and timeline for experiments in b-d. The Jurkat T cells were pre-treated with inhibitors for 30 minutes before anti-TCR stimulation by anti-CD3/CD28 antibodies for 5 minutes. • b, Immunostaining images of pLAT (Y191) in Jurkat T cells with different inhibitor pre-treatments. Scale bars, 10 μm. • c, Quantification of pLAT (Y191) intensity of single cells in different groups. (n>150 for each group, One-way ANOVA, ****P<0.0001). Error bars, mean±SD. • d, Quantification of pZAP70 (Y493) intensity of single cells in different groups. (n>200 for each group, One-way ANOVA, ****P<0.0001). […] P116 cells with similar ZAP70-WT or ZAP70-R360P expressions were sorted and isolated for further analysis based on YPet intensity. • h, CD69 expression in P116 cells with or without the expression of ZAP70 (WT) and its mutant (R360P). • i, Quantification of pZAP70 (Y493) intensity of single cells in different P116 groups. […] Scale bars, 10 μm. • k, Quantification of pLAT (Y191) intensity of single cells in P116-ZAP70 R360P cells with different inhibitor pre-treatment. […]

[2] = tested on: pZAP70 (Y493); test: pZAP70 (Y493) immunostaining in Jurkat T cells after anti-CD3/CD28 stimulation; format: cell-based, human; conditions: inhibitor pre-treatment 30 minutes, anti-CD3/CD28 5 minutes
Method: as §1, §2

[3] = tested on: pLAT (Y191); test: pLAT (Y191) in P116-ZAP70 R360P cells; format: cell-based, human; conditions: inhibitor pre-treatment
Description: (§3) To examine the efficacy of staurosporine and AZD7762 in inhibiting pathological T cell activation, we used a disease model where T cell activation is mediated by ZAP70-R360P mutation, a main cause of a severe human autoimmune syndrome^4. We introduced wild type ZAP70 or the R360P-mutant of ZAP70 into ZAP70-deficient P116 T cells (FIG. 6G). ZAP70-R360P led to enhanced T cell auto-activation compared to wild type ZAP70 (FIG. 6H).
as §2, with “(n>150 for each group, One-way ANOVA, ****P<0.0001).” left out, “groups.” for “groups. (n>200 for each group, One-way ANOVA, ****P<0.0001).”

[4] = tested on: pZAP70 (Y493); test: pZAP70 (Y493) in P116-ZAP70 R360P cells; format: cell-based, human; conditions: inhibitor pre-treatment
Description: as §3
as §2, with “(n>150 for each group, One-way ANOVA, ****P<0.0001).” left out, “groups.” for “groups. (n>200 for each group, One-way ANOVA, ****P<0.0001).”

[5] = molecular target: T1, ZAP70 kinase (Homo sapiens, UniProt P43403); conditions: for inhibition of ZAP70 activity (FRET ratio change compared to solvent control): 10 μM, 40 minutes of incubation
T1 sequence (P43403 327-619): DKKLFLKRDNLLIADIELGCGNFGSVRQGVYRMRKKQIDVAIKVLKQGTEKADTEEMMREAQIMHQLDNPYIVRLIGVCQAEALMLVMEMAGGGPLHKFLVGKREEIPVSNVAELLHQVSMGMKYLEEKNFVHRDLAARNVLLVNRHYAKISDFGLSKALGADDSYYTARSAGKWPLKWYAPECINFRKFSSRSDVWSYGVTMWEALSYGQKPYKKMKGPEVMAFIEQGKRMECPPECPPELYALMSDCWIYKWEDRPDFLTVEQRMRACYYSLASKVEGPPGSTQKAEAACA
Method: (§4) We first screened a 96-member kinase inhibitor library to identify efficient inhibitors of ZAP70 kinase. […] After 40 minutes of incubation with inhibitors, the cells were imaged, and the FRET ratio changes of individual inhibitors compared to the solvent control were calculated to identify promising candidates after this primary endpoint screening (FIG. 5B-D). We further exploited a control biosensor with a kinase-dead domain (saFRETkd) for counter screening to eliminate false-positive hits due to auto-fluorescence or other non-specific effects^48.
• a, Schematics of the high throughput drug screening platform. First, the cells cultured in 96-well glass bottom plate were treated either with DMSO or inhibitors from the kinase inhibitor library. After 40 minutes of incubation, the cells were imaged, and the FRET ratio change compared to the control cell was calculated. […] Scale bars, 10 μm. • c, Summary of screening results. […] Error bars, mean±SD. • e, Counter screening using a mutant biosensor with a kinase-dead domain to subtract the noise engendered from non-specific fluorescence. […] Error bars, mean±SEM.
(§5) Firstly, we transfected HEK293 cells with optimized saFRET biosensor and established a stable cell line. […] HEK293 stable cell line was then cultured in 96 glass bottom wells for approximately 24 hours and then should be ready for high throughput screening (see FIG. 5A, Example 1). We tested this concept by screening an in house kinase inhibitor library (Cayman chemical inc.) and screened a […] kinase inhibitor library to identify efficient inhibitors of ZAP70 kinase. […] After 40 minutes of incubation with inhibitors, the cells were imaged, and the FRET ratio changes of individual inhibitors compared to the solvent control were calculated to identify promising candidates after this primary endpoint screening (see FIG. 5B-G, Example 1). We further exploited a control biosensor with a mutated-kinase dead domain (saFRETkd) for counter screening to eliminate false-positive hits due to auto-fluorescence or other non-specific effects (Simeonov and Davis 2004).

[6] = tested on: CD69 expression; test: CD69 expression by flow cytometry in P116-ZAP70-R360P cells; format: cell-based, human; conditions: inhibitor pre-treatment
Description: as §3
as §2, with “(n>150 for each group, One-way ANOVA, ****P<0.0001).” left out, “groups.” for “groups. (n>200 for each group, One-way ANOVA, ****P<0.0001).”

[7] = tested on: CD69 expression; test: CD69 expression by flow cytometry in T cells after anti-TCR stimulation; format: cell-based, human; conditions: inhibitor pre-treatment
Method: as §1, §2

[8] = molecular target: T2, ZAP70 biosensor with kinase-dead domain (saFRETkd) (Homo sapiens, UniProt P43403, K369A); test: ZAP70 saFRET biosensor with kinase-dead domain (saFRETkd), control / counter screening; format: cell-based; conditions: for TAK-659-induced FRET response of ZAP70 saFRET biosensor with kinase-dead domain: kinase-dead (K369A) domain, HEK cells
T2 construct: kinase 327-619 (both KA and KM) was chosen for generating the Zap70 biosensor substrate libraries; expressed in transfected cells; host or cells: HEK cells
T2 sequence (P43403 327-619 K369A): T1 sequence (P43403 327-619) with K43A
Method: as §4, §5

[9] = molecular target: T3, ZAP70 kinase domain (327-619) (Homo sapiens, UniProt P43403); test: ZAP70 saFRET biosensor live-cell FRET imaging in HEK cells; format: cell-based; conditions: TAK-659 25 μM
T3 construct: The combination of ZAP70 kinase domain (327-619) and a substrate from LATY191; expressed in transfected cells; host or cells: HEK cells
T3 sequence (P43403 327-619): T1 sequence (P43403 327-619)
Description: To extend FRET-seq as a general platform to optimize different kinase FRET biosensors in mammalian cells, we further applied this technology to improve the ZAP70 kinase FRET biosensor. […] Similar to the Fyn saFRET biosensor, the FRET change of ZAP70 saFRET biosensor was dominated by the active kinase domain, as evidenced by the observations that the TAK-659-induced dynamic changes (FIG. 3 b,c) and phosphorylation (Supplementary FIG. 5a, or FIG. 11A) were abolished when the kinase domain was replaced by its kinase-dead version (K369A)^41.
Using the established platform for library screening and sequencing, the ZAP70 biosensor candidates selected via the four-dimensional plot were further ranked by the product of Ev (KAH) and Ev (KDL) (FIG. 3D-E). […] The dynamic range of FRET ratio of the biosensors containing […] (SEQ ID NO:113) or […] (SEQ ID NO:114) increased approximately 50% comparing to the parental one, when transiently expressed in HEK cells (FIG. 3G-H). As such, our FRET-seq platform can serve as a general high-throughput approach to engineer FRET biosensor from libraries and develop sensitive kinase biosensors. […]
To increase the specificity of the selected substrates, library with mutated kinase were included. […] The variants which satisfied all conditions were selected (FIG. 3D, Example 1), and their FRET ratio change upon TAK-659 treatment were measured by fluorescence microscope. […]

Compound	phosphorylated LAT (Y191) [1]	phosphorylated ZAP70 (Y493) [2]	phosphorylation of LAT (Y191) [3]	phosphorylation of ZAP70 [4]	inhibition of ZAP70 activity (FRET ratio change compared to solvent control) [5]	activation of T cells marked by CD69 [6]	expression of CD69 [7]	FRET ratio response of ZAP70 saFRET biosensor (active kinase domain) to inhibitor [9]	other results
NC(=O)Nc1cc(-c2cccc(F)c2)sc1C(=O)N[C@H]1CCCNC1 [AZD7762]	Significant reductions	Significant reductions	significantly inhibited	significantly inhibited	effectively inhibit	significantly inhibited	suppressed	–	–
Cc1[nH]c(/C=C2\C(=O)Nc3ccc(S(=O)(=O)Cc4c(Cl)cccc4Cl)cc32)c(C)c1C(=O)N1CCC[C@@H]1CN1CCCC1 [PHA665752]	–	–	–	–	–	–	–	–	FRET ratio change with saFRETkd in counter screening ([8]; 10 μM library inhibitors, kinase-dead biosensor): nonspecific reduction of FRET ratio
CC(C)(C)n1nc(-c2ccc(Cl)cc2)c2c(N)ncnc21 [PP2]	–	–	–	–	–	–	–	not	–
CN[C@@H]1C[C@H]2O[C@@](C)([C@@H]1OC)n1c3ccccc3c3c4c(c5c6ccccc6n2c5c31)C(=O)NC4 [Staurosporine]	Significant reductions	Significant reductions	significantly inhibited	significantly inhibited	effectively inhibit	significantly inhibited	suppressed	–	–
Cn1cc(-c2nc(N[C@@H]3CCCC[C@@H]3N)c(F)c3c2C(=O)NC3)cn1 [TAK-659]	–	–	–	–	–	–	–	specifically responded; also recorded: significant FRET ratio change	inhibition of ZAP70 activity (FRET ratio change compared to solvent control) ([5]; listed as TAK659): could not reduce the FRET ratio significantly; average FRET ratio reduction ([5]; 25 μM, stable HEK cell line, ZAP70 saFRET biosensor): approximately 25%; TAK-659-induced FRET response of ZAP70 saFRET biosensor with kinase-dead domain [8]: abolished; also recorded: did not show any response; TAK-659-induced FRET response of ZAP70 saFRET biosensor with kinase-dead domain ([8]; listed as TAK659): no response
COc1ccc2cc(-c3nc(-c4ccc([S+](C)[O-])cc4)[nH]c3-c3ccncc3)ccc2c1 (stereo not shown) [Tie2 kinase inhibitor]	–	–	–	–	effectively inhibit	–	–	–	–
